Reference: ChEMBL document CHEMBL4052647, “Synthesis and pharmacological evaluation of novel chromone derivatives as balanced multifunctional agents against Alzheimer's disease” (Bioorg Med Chem, 2017)
Activity calls are given as the source filed them. The rule behind the calls is not given here.

Experiments:
[1] = physchem; settings: PAMPA
[2] = physchem; settings: PAMPA, pH 7.4
[3] = target: T1, Amine oxidase [flavin-containing] A (Homo sapiens, UniProt P21397); assay: Inhibition of recombinant human MAO-A expressed in baculovirus infected BTI insect cells using p-tyramine as substrate pretreated for 15 mins followed by substrate addition after 20 mins by Amplex red reagent based fluorimetric method
T1 sequence (P21397 whole entry): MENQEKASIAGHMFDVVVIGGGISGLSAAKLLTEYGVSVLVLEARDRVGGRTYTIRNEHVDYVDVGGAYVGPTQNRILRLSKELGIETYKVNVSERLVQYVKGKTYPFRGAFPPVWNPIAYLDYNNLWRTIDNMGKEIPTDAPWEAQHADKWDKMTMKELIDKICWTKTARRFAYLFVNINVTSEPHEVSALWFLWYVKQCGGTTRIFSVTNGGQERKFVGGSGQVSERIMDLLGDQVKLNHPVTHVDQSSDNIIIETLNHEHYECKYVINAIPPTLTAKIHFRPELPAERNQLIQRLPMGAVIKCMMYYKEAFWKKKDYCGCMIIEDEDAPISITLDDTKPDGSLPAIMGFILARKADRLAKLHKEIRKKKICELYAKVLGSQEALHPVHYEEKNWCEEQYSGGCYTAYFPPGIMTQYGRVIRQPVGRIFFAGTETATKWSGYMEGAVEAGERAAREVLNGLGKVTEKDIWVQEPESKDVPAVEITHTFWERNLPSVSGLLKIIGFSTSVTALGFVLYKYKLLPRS

[4] = Antioxidant activity assessed as trolox equivalent of […]-induced radical scavenging activity at 1 to 10 uM preincubated for 15 mins followed by AAPH addition measured every minute for 120 mins by ORAC fluorescein assay; format: functional
[5] = test system: PC-12; assay: Cytotoxicity against rat PC12 cells at 20 uM after 24 hrs by MTT assay; format: cell-based; settings: pc-12, 24 h
[6] = target: T2, Amine oxidase [flavin-containing] B (Homo sapiens, UniProt P27338); assay: biochemical; format: cell-based
T2 sequence (P27338 whole entry): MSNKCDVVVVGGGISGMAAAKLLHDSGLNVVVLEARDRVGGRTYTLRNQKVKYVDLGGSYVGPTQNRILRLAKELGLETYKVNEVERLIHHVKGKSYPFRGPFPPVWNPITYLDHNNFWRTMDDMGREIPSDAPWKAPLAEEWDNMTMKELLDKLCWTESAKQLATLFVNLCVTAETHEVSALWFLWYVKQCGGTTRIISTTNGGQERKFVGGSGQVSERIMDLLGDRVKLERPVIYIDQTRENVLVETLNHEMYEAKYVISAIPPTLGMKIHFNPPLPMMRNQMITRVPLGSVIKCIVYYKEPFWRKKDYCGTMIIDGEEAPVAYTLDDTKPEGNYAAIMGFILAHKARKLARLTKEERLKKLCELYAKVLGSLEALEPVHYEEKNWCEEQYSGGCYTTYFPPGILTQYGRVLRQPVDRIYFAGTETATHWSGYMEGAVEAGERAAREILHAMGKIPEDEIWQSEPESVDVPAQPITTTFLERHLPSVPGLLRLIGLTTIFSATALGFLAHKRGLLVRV
Description: Inhibition of recombinant human MAO-B expressed in baculovirus infected BTI insect cells using p-tyramine as substrate pretreated for 15 mins followed by substrate addition after 20 mins by Amplex red reagent based fluorimetric method

[7] = target: Amyloid-beta precursor protein (Homo sapiens) (UniProt P05067); assay: Inhibition of HFIP-pretreated amyloid beta (1 to 42) (unknown origin) self-induced aggregation at 20 uM after 46 to 48 hrs by thioflavin-T fluorescence assay relative to control
Amyloid-beta precursor protein (Homo sapiens), sequence (P05067 whole entry): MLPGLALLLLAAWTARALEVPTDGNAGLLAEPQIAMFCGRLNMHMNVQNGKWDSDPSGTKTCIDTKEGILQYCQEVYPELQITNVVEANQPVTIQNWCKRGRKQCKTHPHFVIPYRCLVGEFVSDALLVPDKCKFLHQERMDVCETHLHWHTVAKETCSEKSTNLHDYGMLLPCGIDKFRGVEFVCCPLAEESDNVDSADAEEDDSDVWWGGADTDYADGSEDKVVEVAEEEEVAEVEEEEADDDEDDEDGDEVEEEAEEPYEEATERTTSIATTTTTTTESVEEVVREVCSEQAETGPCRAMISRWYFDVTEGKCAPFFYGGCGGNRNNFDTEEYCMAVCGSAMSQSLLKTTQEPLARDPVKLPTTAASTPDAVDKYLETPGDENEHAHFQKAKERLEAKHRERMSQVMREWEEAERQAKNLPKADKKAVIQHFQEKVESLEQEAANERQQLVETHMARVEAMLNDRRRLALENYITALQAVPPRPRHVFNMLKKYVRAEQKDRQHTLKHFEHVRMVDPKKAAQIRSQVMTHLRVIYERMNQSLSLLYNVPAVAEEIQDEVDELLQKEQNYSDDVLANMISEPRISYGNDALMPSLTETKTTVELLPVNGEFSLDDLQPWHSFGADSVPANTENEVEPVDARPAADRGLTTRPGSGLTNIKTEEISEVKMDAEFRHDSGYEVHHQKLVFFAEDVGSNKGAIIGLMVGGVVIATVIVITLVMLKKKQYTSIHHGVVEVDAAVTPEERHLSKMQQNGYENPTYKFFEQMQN

[8] = species: Homo sapiens; assay: Selectivity index, ratio of IC50 for recombinant human MAO-A expressed in baculovirus infected BTI insect cells to IC50 for recombinant human MAO-B expressed in baculovirus infected BTI insect cells
[9] = Metal chelating activity assessed as inhibition of Cu2+-induced amyloid beta (1 to 42 residues) aggregation at 50 uM after 24 hrs by thioflavin-T fluorescence assay (reference value: 142%)
[10] = Metal chelating activity assessed as inhibition of Cu2+-induced amyloid beta (1 to 42 residues) aggregation by measuring reduction in amyloid fibrils at 50 uM […] by uranyl acetate staining based transmission electron microscopic analysis
[11] = test system: PC-12; assay: Neuroprotective activity against H2O2-induced cell death in rat PC12 cells assessed as increase in cell viability at 10 uM pretreated for 24 hrs followed by H2O2 induction after 24 hrs by MTT assay; format: functional, cell-based

Compound | Papp at 16 h [1] [×10⁻⁶ cm/s] | Papp at 18 h, 25 ug/ml [2] [×10⁻⁶ cm/s] | IC50 [3] [µM] | Activity [4] [equiv] | Activity [5] | IC50 [6] [µM] | inhibition [7] [%] | Ratio IC50 [8] | inhibition [9] [%] | inhibition [10] | Activity [11]
CCn1cc(C(=O)O)c(=O)c2cc(F)c(N3CCNC(C)C3)c(F)c21 (centres undefined) [LOMEFLOXACIN] | 3.1 | 1.9 |  |  |  |  |  |  |  |  | 
O=c1c(/C=N/c2ccccc2O)coc2ccccc12 |  |  | 6.81 | 2.39 | Non-Toxic | 31.5 | 65.2 | 0.22 |  |  | 
O=c1c(/C=N/c2ccc(Cl)cc2O)coc2ccccc12 |  |  | 1.42 | 2.36 | Non-Toxic | 1.78 | 51.5 | 0.8 |  |  | 
O=c1c(/C=N/c2cc(Cl)ccc2O)coc2ccc(Br)cc12 |  |  | 4.55 | 2.16 | Non-Toxic | 3.28 | 72.1 | 1.39 |  |  | 
Oc1c(I)cc(Cl)c2cccnc12 |  |  |  |  |  |  |  |  | 47.7 | Active | 
O=c1c(/C=N/c2cccc(Cl)c2O)coc2ccccc12 |  |  | 1.65 | 2.01 | Non-Toxic | 14.5 | 79.5 | 0.11 |  |  | 
O=c1c(/C=N/c2ccc(F)cc2O)coc2ccc(Br)cc12 |  |  | 2.72 | 2.73 | Non-Toxic | 0.764 | 71.5 | 3.56 |  |  | 
O=c1c(/C=N/c2ccc(Cl)cc2O)coc2ccc(Br)cc12 |  |  | 3.18 | 1.92 | Non-Toxic | 1.29 | 87.6 | 2.47 |  |  | 
O=c1c(/C=N/c2cccc(Cl)c2O)coc2ccc(Br)cc12 | 4.81 |  | 4.47 | 2.6 | Non-Toxic | 2.27 | 68.1 | 1.97 |  |  | 
COc1ccc2[nH]cc(CCNC(C)=O)c2c1 |  |  |  | 2.05 |  |  |  |  |  |  | 
O=c1c(/C=N/c2ncccc2O)coc2ccccc12 |  |  | 7.41 | 2.23 | Non-Toxic | 2.23 | 70.8 |  |  |  | 
O=c1c(/C=N/c2cc(F)ccc2O)coc2ccccc12 |  |  | 4.65 | 2.6 | Non-Toxic | 1.78 | 64.5 | 2.61 |  |  | 
Cc1ccc2occ(/C=N/c3ncccc3O)c(=O)c2c1 |  |  | 7.35 | 2.03 | Non-Toxic | 2.03 | 63.4 | 3.62 |  |  | 
Cc1ccc(O)c(/N=C/c2coc3ccccc3c2=O)c1 |  |  | 3.34 | 2.43 | Non-Toxic | 1.13 | 58.1 | 2.96 |  |  | 
O=c1c(/C=N/c2cc(Cl)ccc2O)coc2ccccc12 |  |  | 1.94 | 2.24 | Non-Toxic | 19.2 | 68.1 | 0.11 |  |  | 
Cc1ccc2occ(/C=N/c3cc(Cl)ccc3O)c(=O)c2c1 |  |  | 2.15 | 2.61 | Non-Toxic | 0.634 | 71.9 | 3.39 |  |  | 
NCCc1ccc(O)c(O)c1 [DOPAMINE] | 1.32 | 0.8 |  |  |  |  |  |  |  |  | 
Cc1c(C)c2c(c(C)c1O)CCC(C)(C(=O)O)O2 (centres undefined) |  |  |  |  |  |  |  |  |  |  | Active
Cc1ccc(/N=C/c2coc3ccc(C)cc3c2=O)c(O)c1 |  |  | 20.8 | 2.48 | Non-Toxic | 21.4 | 45.6 | 0.97 |  |  | 
Cc1ccc2occ(/C=N/c3cc([N+](=O)[O-])ccc3O)c(=O)c2c1 |  |  | 7.27 | 2.73 | Non-Toxic | 1.64 | 71.2 | 4.43 |  |  | 
Cc1ccc2occ(/C=N/c3cc(F)ccc3O)c(=O)c2c1 |  |  | 3.83 | 2.92 | Non-Toxic | 2.34 | 87.3 | 1.64 |  |  | 
O=c1c(/C=N/c2cc(F)ccc2O)coc2ccc(Br)cc12 |  |  | 3.09 | 2.68 | Non-Toxic | 0.825 | 79.1 | 3.75 |  |  | 
Cc1ccc2occ(/C=N/c3ccc(Cl)cc3O)c(=O)c2c1 | 5.57 |  | 2.62 | 3.41 | Non-Toxic | 0.915 | 48.3 | 2.86 |  |  | Active
Cc1ccc(/N=C/c2coc3ccccc3c2=O)c(O)c1 |  |  | 6.26 | 2.26 | Non-Toxic | 14.3 | 75.2 | 0.44 |  |  | 
O=c1c(/C=N/c2ncccc2O)coc2ccc(Br)cc12 |  |  | 9.81 | 2.97 | Non-Toxic | 2.92 | 69.8 | 3.31 |  |  | 
O=c1c(/C=N/c2cc3ccccc3cc2O)coc2ccccc12 |  |  | 3.35 | 1.82 | Non-Toxic | 6.42 | 66.5 | 0.52 |  |  | 
Oc1ccc(/C=C/c2cc(O)cc(O)c2)cc1 |  |  |  |  |  |  | 57.2 |  | 63.3 | Active | 
